3 compounds from patent US11564929B2, “Combination therapy with Notch and PI3K/mTOR inhibitors for use in treating cancer” (Eli Lilly and Company, priority 2016, dated 2023) can be followed below.

In the assay the test system is A2780 human ovarian carcinoma. Nature of the assay: Human A2780 xenograft tumor growth in athymic nude mice. Type of assay: in vivo. The method, then: A2780 is a human ovarian cell line (Sigma-Aldrich). The cells are grown in culture media at 37° C. in 5% CO2 with humidity in the atmosphere. Cell culture media for A2780 human ovarian carcinoma is RPMI-1640 (without phenol red) with 2.05 mM L-glutamine, 0.01 mg/ml insulin and 10% fetal bovine serum (EBS) added.
To evaluate in viva efficacy and effect A2780 (2×10^6) cells in a 1:1 Matrigel® mix (0.2 mL volume) are implanted by subcutaneous injection in the hind leg of 6-8 weeks of age athymic nude female mice (Harlan Laboratories). A total of 7 to 10 mice are used for each group. Just before implantation, animals are irradiated ([…]). Mice are fed ad libitum on normal chow. Treatment is initiated with oral administration (gavage) of Compound A or vehicle (1% sodium carboxymethylcellulose (Na-CMC) in 0.25% Tween®-80) or Compound B in 1% hydroxyethyl cellulose (HEC)/0.25% Tween® 80/0.05% Antifoam or their vehicle in 0.2 mL volume when tumor size reached to 150±50 mm^3, in this case after the tumor measurements were taken on study day 9. Compound A was administered at 4 or 8 mg/kg on a Monday, Wednesday and Friday schedule for 4 weeks and Compound B was administered at 15 or 30 mg/kg daily for 28 days. Tumor growth and body weight are monitored over time to evaluate efficacy and signs of toxicity. Bidimensional measurements of tumors are performed twice a week and tumor volumes are calculated based on the following formula: (Tumor Volume)=[(L)×(W2)×(II/6)] where L is mid-axis length and W is mid-axis width. Tumor volume data are transformed to a […] to equalize variance across time and treatment groups. The log volume data are analyzed with a two-way repeated measures analysis of variance by time and treatment using the MIXED™ procedure in SAS™ software (version 8.2). The correlation model for the repeated measures is spatial power. Test Groups are: • 01: Control: 1% HEC/0.25% Tween 80/0.05% Antifoam; 1% CMC/0.25% Tween 80/0.05% Antifoam; • 02: Compound A 8 mg/kg; • 03: Compound B 30 mg/kg; • 04: rapamycin 4 mg/kg; • 05: Compound A 8 mg/kg and Compound B 30 mg/kg; • 06: Compound A 4 mg/kg and Compound B 30 mg/kg; • 07: Compound B 15 mg/kg and Compound A 8 mg/kg; • 08: Compound B 15 mg/kg and Compound A 4 mg/kg; • 09: Compound A 8 mg/kg and rapamycin 4 mg/kg.
Using the repeated measures analysis previously described, a contrast statement is used to test for an interaction effect on study day 36, using the two specific treatments that were combined.

Molecules are shown by their SMILES.

Take `C[C@H](NC(=O)CCC(F)(F)F)C(=O)N[C@@H]1C(=O)N(CCO)c2ncccc2-c2ccccc21` [Compound A, 4,4,4-trifluoro-N-[(1S)-2-[[(7S)-5-(2-hydroxyethyl)-6-oxo-7H-pyrido[2,3-d][3]benzazepin-7-yl]amino]-1-methyl-2-oxo-ethyl]butanamide]: the “Tumor volume, Geometric Mean” value was 121.62 mm^3 (Group 02: Compound A 8 mg/kg oral Mon/Wed/Fri, study day 7 (before first dose)); 109.98 mm^3 (Group 02: Compound A 8 mg/kg oral Mon/Wed/Fri, study day 9 (before first dose)); 131.53 mm^3 (Group 02: Compound A 8 mg/kg oral Mon/Wed/Fri, study day 12); 194.78 mm^3 (Group 02: Compound A 8 mg/kg oral Mon/Wed/Fri, study day 15); 408.55 mm^3 (Group 02: Compound A 8 mg/kg oral Mon/Wed/Fri, study day 19); 639.48 mm^3 (Group 02: Compound A 8 mg/kg oral Mon/Wed/Fri, study day 22). The “Tumor volume, Geometric Mean” value reads like this: (Group 02: Compound A 8 mg/kg oral Mon/Wed/Fri, study day 26) 1140.46 mm^3; (Group 02: Compound A 8 mg/kg oral Mon/Wed/Fri, study day 29) 1384.21 mm^3; (Group 02: Compound A 8 mg/kg oral Mon/Wed/Fri, study day 33) 1631.82 mm^3; (Group 02: Compound A 8 mg/kg oral Mon/Wed/Fri, study day 36) 1616.05 mm^3.

As for `CO[C@@H](C)Cn1c(=O)n(C)c2cnc3ccc(-c4cncc(C(C)(C)O)c4)cc3c21` [Compound B, 8-[5-(1-hydroxy-1-methylethyl)pyridin-3-yl]-1-[(2S)-2-methoxypropyl]-3-methyl-1,3-dihydro-2H-imidazo[4,5-c]quinolin-2-one], the “Tumor volume, Geometric Mean” value is, setting by setting: (Group 03: Compound B 30 mg/kg oral daily, study day 7 (before first dose)) 149.36 mm^3; (Group 03: Compound B 30 mg/kg oral daily, study day 9 (before first dose)) 118.70 mm^3; (Group 03: Compound B 30 mg/kg oral daily, study day 12) 138.06 mm^3; (Group 03: Compound B 30 mg/kg oral daily, study day 15) 201.95 mm^3; (Group 03: Compound B 30 mg/kg oral daily, study day 19) 326.33 mm^3; (Group 03: Compound B 30 mg/kg oral daily, study day 22) 488.21 mm^3. The “Tumor volume, Geometric Mean” value reads like this: (Group 03: Compound B 30 mg/kg oral daily, study day 26) 776.88 mm^3; (Group 03: Compound B 30 mg/kg oral daily, study day 29) 1135.14 mm^3; (Group 03: Compound B 30 mg/kg oral daily, study day 33) 1527.41 mm^3; (Group 03: Compound B 30 mg/kg oral daily, study day 36) 1664.20 mm^3.

Take `CO[C@H]1C[C@@H]2CC[C@@H](C)[C@@](O)(O2)C(=O)C(=O)N2CCCC[C@H]2C(=O)O[C@H]([C@H](C)C[C@@H]2CC[C@@H](O)[C@H](OC)C2)CC(=O)[C@H](C)/C=C(\C)[C@@H](O)[C@@H](OC)C(=O)[C@H](C)C[C@H](C)/C=C/C=C/C=C/1C` [rapamycin, reference compound]: the “Tumor volume, Geometric Mean” value stood at 130.45 mm^3 (Group 04: rapamycin 4 mg/kg, study day 7 (before first dose)); 100.08 mm^3 (Group 04: rapamycin 4 mg/kg, study day 9 (before first dose)); 130.81 mm^3 (Group 04: rapamycin 4 mg/kg, study day 12); 215.88 mm^3 (Group 04: rapamycin 4 mg/kg, study day 15); 428.88 mm^3 (Group 04: rapamycin 4 mg/kg, study day 19); 786.46 mm^3 (Group 04: rapamycin 4 mg/kg, study day 22). The “Tumor volume, Geometric Mean” value (Group 04: rapamycin 4 mg/kg, study day 26) came to 1291.64 mm^3; the “Tumor volume, Geometric Mean” value (Group 04: rapamycin 4 mg/kg, study day 29) amounted to 1664.57 mm^3; the “Tumor volume, Geometric Mean” value (Group 04: rapamycin 4 mg/kg, study day 33) is recorded as 2136.31 mm^3; the “Tumor volume, Geometric Mean” value (Group 04: rapamycin 4 mg/kg, study day 36) was 2461.81 mm^3.
